Where “and” joins values, the source holds several entries; their conditions need not be identical. Equal values may be shown once. Inconclusive results and toxic doses are left out.

The experiment relates to L1210 leukemia ip in BDF1 mice, survival T/C. The experiment can be described thus: NCI In Vivo Anticancer Drug Screen. Data for tumor model L1210 Leukemia (intraperitoneal) in B6D2F1 (BDF1) mice. To be noted: endpoint: mean survival time, higher = longer survival. The method, boiled down: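 In this screen, tumor-bearing mice given compound are compared to those given vehicle, and their survival values are reported as a treated-to-control quotient.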

[1] abbreviates: dose: 100.0 mg/kg/injection, schedule: Q01DX001 (ip), vehicle: saline.
[2] abbreviates: dose: 200.0 mg/kg/injection, schedule: Q01DX001 (ip), vehicle: saline.
Setting [3] is: dose: 400.0 mg/kg/injection, schedule: Q01DX001 (ip), vehicle: saline.
[4] abbreviates: dose: 100.0 mg/kg/injection, schedule: Q01DX009 (ip), vehicle: saline.
The mark [5] stands for this setting: dose: 100.0 mg/kg/injection, schedule: Q04DX003 (ip), vehicle: saline.
Where [6] appears, read: dose: 200.0 mg/kg/injection, schedule: Q01DX009 (ip), vehicle: saline.
Setting [7] is: dose: 200.0 mg/kg/injection, schedule: Q04DX003 (ip), vehicle: saline.
Setting [8] is: dose: 400.0 mg/kg/injection, schedule: Q01DX009 (ip), vehicle: saline.
[9] abbreviates: dose: 400.0 mg/kg/injection, schedule: Q04DX003 (ip), vehicle: saline.

As for `c1ccc2c(c1)ccc1ccc[s+]c12`, the T/C was 95 % of control (dose: 50.0 mg/kg/injection, schedule: Q01DX009 (ip), vehicle: Klucel (hydroxypropylcellulose) (HPC)); 108 % of control (dose: 50.0 mg/kg/injection, schedule: Q04DX003 (ip), vehicle: Klucel (hydroxypropylcellulose) (HPC)); 103 % of control (dose: 100.0 mg/kg/injection, schedule: Q01DX001 (ip), vehicle: acetone); 94 % of control (dose: 100.0 mg/kg/injection, schedule: Q01DX009 (ip), vehicle: Klucel (hydroxypropylcellulose) (HPC)); 104 % of control (dose: 100.0 mg/kg/injection, schedule: Q04DX003 (ip), vehicle: Klucel (hydroxypropylcellulose) (HPC)); 103 % of control (dose: 200.0 mg/kg/injection, schedule: Q01DX001 (ip), vehicle: acetone). Moreover, the T/C (dose: 200.0 mg/kg/injection, schedule: Q01DX009 (ip), vehicle: Klucel (hydroxypropylcellulose) (HPC)) is 97 % of control; the T/C (dose: 200.0 mg/kg/injection, schedule: Q04DX003 (ip), vehicle: Klucel (hydroxypropylcellulose) (HPC)) is 104 % of control; the T/C (dose: 400.0 mg/kg/injection, schedule: Q01DX001 (ip), vehicle: acetone) was 106 % of control.
`Cc1ccc(C)c(Nc2nc(Cl)nc3ncn(C)c23)c1`: the T/C runs as follows: (dose: 100.0 mg/kg/injection, schedule: Q01DX001 (ip), vehicle: other) 103 % of control; (dose: 100.0 mg/kg/injection, schedule: Q04DX003 (ip), vehicle: other) 102 % of control; (dose: 200.0 mg/kg/injection, schedule: Q01DX001 (ip), vehicle: other) 90 % of control; (dose: 200.0 mg/kg/injection, schedule: Q04DX003 (ip), vehicle: other) 117 % of control; (dose: 400.0 mg/kg/injection, schedule: Q01DX001 (ip), vehicle: other) 94 % of control; (dose: 400.0 mg/kg/injection, schedule: Q04DX003 (ip), vehicle: other) 110 % of control.
As to `N#Cc1ccc(CCc2ccccc2)cc1`, the T/C (dose: 50.0 mg/kg/injection, schedule: Q01DX001 (ip), vehicle: saline) was 102 % of control; the T/C under setting [1] was 102 % of control; the T/C under setting [2] was 101 % of control; the T/C under setting [3] is 102 % of control.
With `COc1cc(C=Nc2ccc3c(c2)ncn3C)ccc1N(CCCl)CCCl`, the T/C (dose: 100.0 mg/kg/injection, schedule: Q04DX002 (ip), vehicle: Klucel (hydroxypropylcellulose) (HPC)) was 153 % of control.
Consider `O=S(=O)(O)c1cc(Cl)cc(Cl)c1O`, for which the T/C under setting [4] was 96 % of control; the T/C under setting [5] was 113 % of control; the T/C under setting [6] is 100 % of control; the T/C under setting [7] was 105 % of control; the T/C under setting [8] was 105 % of control; the T/C under setting [9] is 107 % of control.
For the compound `CC(=O)c1c2ccccc2cc2ccccc12`, the T/C was 106 % of control under setting [1], 106 % of control under setting [2] and 101 % of control under setting [3].
Consider `CNc1nc(SC)ncc1C`, for which the T/C reads like this: (dose: 25.0 mg/kg/injection, schedule: Q01DX Z (ip), vehicle: methylcellulose (MC)) 92 % of control; (dose: 50.0 mg/kg/injection, schedule: Q01DX Z (ip), vehicle: methylcellulose (MC)) 89 % of control.
With `COC1=C(NCCc2ccccc2)C(=O)C(OC)=C(NCCc2ccccc2)C1=O`, the T/C is 96 % of control (dose: 50.0 mg/kg/injection, schedule: Q01DX001 (ip), vehicle: carboxymethylcellulose (CMC)); 94 % of control (dose: 100.0 mg/kg/injection, schedule: Q01DX001 (ip), vehicle: carboxymethylcellulose (CMC)); 89 % of control (dose: 200.0 mg/kg/injection, schedule: Q01DX001 (ip), vehicle: carboxymethylcellulose (CMC)); 89 % of control (dose: 400.0 mg/kg/injection, schedule: Q01DX001 (ip), vehicle: carboxymethylcellulose (CMC)).
Take `CC(=O)NN(C)C(C)=O`: the T/C runs as follows: (dose: 12.5 mg/kg/injection, schedule: Q04DX003 (ip), vehicle: saline) 110 % of control; (dose: 25.0 mg/kg/injection, schedule: Q04DX003 (ip), vehicle: saline) 120 % of control; (dose: 50.0 mg/kg/injection, schedule: Q04DX003 (ip), vehicle: saline) 112 % of control; under setting [5], 101 % of control; (dose: 130.0 mg/kg/injection, schedule: Q04DX003 (ip), vehicle: saline) 105 % of control; under setting [7], 96 % of control and 120 % of control. Also, the T/C is 100 % of control (dose: 300.0 mg/kg/injection, schedule: Q04DX003 (ip), vehicle: saline) and 106 % of control under setting [9].
For the compound `CCCCN(C)N=Nc1ccc(C(N)=O)cc1`, the T/C was 98 % of control (dose: 20.0 mg/kg/injection, schedule: Q01DX Z (ip), vehicle: carboxymethylcellulose (CMC)); 101 % of control (dose: 40.0 mg/kg/injection, schedule: Q01DX Z (ip), vehicle: carboxymethylcellulose (CMC)); 104 % of control (dose: 60.0 mg/kg/injection, schedule: Q01DX Z (ip), vehicle: carboxymethylcellulose (CMC)).
For `CCN(CC)CCOc1c(C(C)C)cccc1C(C)C`, the T/C reads like this: (dose: 12.5 mg/kg/injection, schedule: Q01DX009 (ip), vehicle: saline) 101 % of control; (dose: 25.0 mg/kg/injection, schedule: Q01DX009 (ip), vehicle: saline) 108 % of control; (dose: 50.0 mg/kg/injection, schedule: Q01DX009 (ip), vehicle: saline) 108 % of control and 89 % of control; under setting [5], 117 % of control.
Consider `CC(=O)ONc1nc(C)c(CCC2OCCO2)c(SC(=N)N)n1`, for which the T/C is, setting by setting: under setting [4], 109 % of control; under setting [5], 110 % of control; under setting [6], 113 % of control; under setting [7], 105 % of control; under setting [8], 93 % of control; under setting [9], 100 % of control.
In the case of `NC=O`, the T/C is 112 % of control (dose: 62.5 mg/kg/injection, schedule: Q01DX009 (ip), vehicle: saline); 95 % of control (dose: 62.5 mg/kg/injection, schedule: Q01DX015 (ip), vehicle: saline); 94 % of control and 109 % of control under setting [1]; 107 % of control (dose: 125.0 mg/kg/injection, schedule: Q01DX009 (ip), vehicle: saline); 101 % of control (dose: 125.0 mg/kg/injection, schedule: Q01DX015 (ip), vehicle: saline); 101 % of control and 92 % of control under setting [2]. Also, the T/C (dose: 250.0 mg/kg/injection, schedule: Q01DX009 (ip), vehicle: saline) is 118 % of control; the T/C (dose: 250.0 mg/kg/injection, schedule: Q01DX015 (ip), vehicle: saline) is 110 % of control; the T/C under setting [3] is 100 % of control and 101 % of control; the T/C (dose: 500.0 mg/kg/injection, schedule: Q01DX015 (ip), vehicle: saline) was 92 % of control; the T/C (dose: 800.0 mg/kg/injection, schedule: Q01DX001 (ip), vehicle: saline) was 106 % of control.

(Values after PubChem BioAssay AID248 (DTP/NCI, 2004).)
